According to patent publication US20220186210A1, “METHOD FOR I[…]” (priority 2019, published 2022):

Assays:
[1] = tested on: HeLa cells with PSMB5 point mutations; experiment: Pooled ssODN point-mutation validation, Bortezomib resistant colonies (MTT viability); assay type: cell-based; details: bortezomib 8 ng/ml, 72 hour, FIG. 9D
Protocol: For the validation of critical mutations of PSMB5 and PLK1, sgRNAs were designed near the mutation site, and each 119 nt ssODN donor encoded one amino acid substitution for a validated residue. All sgRNAs (sgRNA sequences for the validation of critical mutations) and ssODN donor sequences (ssODN donors encoded one amino acid substitution for a validated residue) are listed in Table 2 as follows.
HeLa cells were transfected with 1 μg of sgRNA and 2 μg of the ssODN donor in six-well plates. Fourteen days after transfection, 1.5×10^5 cells were seeded in six-well plates 24 hour before drug selection. […] The genomes of drug-resistant cells were extracted using the TIANamp Genomic DNA Kit (TIANGEN).
(§1) Because missense point mutations were the predominant formats conferring drug resistance for both PSMB5 and PLK1, we decided to employ ssODN-mediated method^(24) to create specific point mutations instead of deletions for validation. We selected nine amino acid residues (R78, T80, V90, M104, A108, D110, C111, C122 and G242) in PSMB5, among which D110 and C111 were included as controls. To choose a proper amino acid for point mutation, the mutant types from screening results or previous reports were preferential choices. […] It remains to be determined how V90 mediates drug sensitivity and whether V90 alteration changes the structure around Bortezomib binding pocket.

[2] = tested on: HeLa cell clones with PSMB5 point mutations; experiment: Cell viability assay of single clones with PSMB5 point mutations; assay type: cell-based; details: single clones with PSMB5 R78N, V9OL, A108T, C122F, G242D; FIG. 9E
Protocol: Cells were seeded in 96-well plates 24 hour before drug or toxin treatment (5,000 cells for diphtheria toxin (DT) and 3,000 cells for bortezomib), and different concentrations of bortezomib or DT were added. Cells were incubated at 37° C. for 48 hour (DT) or 72 hour (bortezomib) before the addition of 1 mg/ml of MTT (3-[4,5 -dimethylthiazol-2-yl]-2,5 -diphenyltetrazolium bromide). Spectrophotometer readings at 570 nm were collected using BioTek Cytation5 (BioTek Instruments).
as §1, with “choices. For the rest, we made all the substitution to alanine (Table 2).” for “choices.”

Q: For `CC(C)C[C@H](NC(=O)[C@H](Cc1ccccc1)NC(=O)c1cnccn1)B(O)O` [Bortezomib], which Bortezomib resistant colonies ([1]; PSMB5 control mutations D110A and C111A) is on record?
A: failed to produce Bortezomib resistant colonies

Q: And the Bortezomib resistant colonies ([1]; PSMB5 mutations R78N, T80A, V90A, M104A, A108T, C122F, G242D)?
A: produced variable number of Bortezomib resistant colonies

Q: What about the “cell susceptibility to Bortezomib” value [2] of the same molecule?
A: conferred Bortezomib resistance
